Laboratory results reported in article PMC6770089, “Interaction Mechanism of Flavonoids and α-Glucosidase: Experimental and Molecular Modelling Studies” (Foods, 2019).
≈ marks a conversion by molar mass, not a printed value.

What follows are molecules tested on T1, α-glucosidase (assay: intrinsic fluorescence quenching, excitation […] nm). Settings: 298 K; double-log; n = 0.9843.
T1 construct: gene MAL12; docking used PDB 3A4A (isomaltase IMA1), not the tested protein
Type: binding, Saccharomyces cerevisiae

Row | SMILES | Ka [L/mol]
1 | O=c1c(O)c(-c2cc(O)c(O)c(O)c2)oc2cc(O)cc(O)c12 [compound 1, myricetin] | 77786

Same assay, conditions: 298 K; double-log; n = 1.0572

Row | SMILES | Ka [L/mol]
2 | O=C1c2c(O)cc(O)cc2O[C@H](c2cc(O)c(O)c(O)c2)[C@H]1O [compound 8, dihydromyricetin] | 57637

Each molecule was assayed against T1, α-glucosidase (assay: pNP-G hydrolysis, absorbance […] nm). Settings: pNP-G (1 mM stock, 1 mL added), 0.1 M phosphate pH 6.8, 37 °C, 10 min preincubation.
Type: biochemical, Saccharomyces cerevisiae

Row | SMILES | IC50 [µg/mL]
3 | O=C1c2c(O)cc(O)cc2O[C@H](c2cc(O)c(O)c(O)c2)[C@H]1O [compound 8, dihydromyricetin] | 85.95 (≈ 268 µM)
4 | O=C(O)[C@H]1O[C@@H](Oc2cc3oc(-c4ccccc4)cc(=O)c3c(O)c2O)[C@H](O)[C@@H](O)[C@@H]1O [compound 14, baicalin] | > 500
5 | O=C(/C=C/c1ccccc1)c1ccc(O)cc1 [compound 10, 4′-hydroxychalcone] | 199.10 (≈ 888 µM)
6 | O=C(/C=C/c1ccc(O)cc1)c1ccccc1 [compound 9, 4-hydroxychalcone] | 123.04 (≈ 549 µM)
7 | O=c1cc(-c2ccccc2)oc2cc(O)c(O)c(O)c12 [compound 4, baicalein] | 6.75 (≈ 25 µM)
8 | O=c1cc(-c2ccc(O)c(O)c2)oc2cc(O)cc(O)c12 [compound 5, luteolin] | 27.22 (≈ 95.1 µM)
9 | O=c1c(O)c(-c2cc(O)c(O)c(O)c2)oc2cc(O)cc(O)c12 [compound 1, myricetin] | 2.09 (≈ 6.57 µM)
10 | O=c1cc(-c2ccccc2)oc2cc(O)cc(O)c12 [compound 7, chrysin] | 70.07 (≈ 276 µM)
11 | COc1ccc([C@@H]2CC(=O)c3c(O)cc(O)cc3O2)cc1O [compound 11, hesperetin] | 286.60 (≈ 948 µM)
12 | COc1ccc([C@@H]2CC(=O)c3c(O)cc(O[C@@H]4O[C@H](CO[C@@H]5O[C@@H](C)[C@H](O)[C@@H](O)[C@H]5O)[C@@H](O)[C@H](O)[C@H]4O)cc3O2)cc1O [compound 13, hesperidin] | > 500
13 | C[C@@H]1O[C@@H](O[C@H]2[C@H](Oc3cc(O)c4c(c3)O[C@H](c3ccc(O)cc3)CC4=O)O[C@H](CO)[C@@H](O)[C@@H]2O)[C@H](O)[C@H](O)[C@H]1O [compound 12, naringin] | > 500
14 | O=C(/C=C/c1ccc(O)cc1)c1ccc(O)cc1O [compound 6, isoliquiritigenin] | 36.29 (≈ 142 µM)
15 | O=c1c(O)c(-c2ccc(O)c(O)c2)oc2cc(O)ccc12 [compound 2, fisetin] | 5.50 (≈ 19.2 µM)
